The record followed here is patent US12486246B2, “Replication protein A (RPA)-DNA interaction inhibitors” (THE TRUSTEES OF INDIANA UNIVERSITY, priority 2019, dated 2025).

For series [1], the target named is T1, full length heterotrimeric human RPA (Homo sapiens, UniProt P27694).
T1 construct: Full length, heterotrimeric human RPA (fl-RPA) and DBD-A/B constructs were expressed and purified; made in house
Put plainly: Electrophoretic mobility shift assay (EMSA), binding of full length human RPA to ssDNA. The following applies: full length human RPA binding to DNA, mean ± SD of minimum triplicate experiments. On the procedure: (§1) Full length, heterotrimeric human RPA (fl-RPA) and DBD-A/B constructs were expressed and purified according to previously described protocol. The DBD-A/B construct was expressed as a His6-RPA181-422 fusion protein. E. coli BL21 (DE3) cells in log growth were induced for 3 h with 0.5 mM IPTG at 37° C. The cells were lysed via sonication in buffer containing 20 mM Tris pH 7.5, 500 mM NaCl, 10 mM b-mercaptoethanol, supplemented with 25 μg/mL lysozyme, 1 μg/mL leupeptin, 1 μg/mL pepstatin and 0.5 mM PMSF. The lysate was applied to a 20 mL phosphocellulose column equilibrated in the same buffer and the flow-through material collected, brought to 5 mM Imidazole and loaded onto a 2 ml Ni-NTA column. The column was washed and proteins eluted on with a gradient from 50 mM to 500 mM imidazole. Fractions were assessed by EMSA and SDS-PAGE and DBD-A/B containing fraction were pool, dialyzed against buffer containing 50 mM HEPES pH 7.0, 500 mM NaCl and 1 mM DTT and stored at −80° C.
(§2) EMSAs were carried out using previously described procedure with the following modification. EMSA reactions (20 μL) were performed with 50 nM fl-RPA and 2.5 nM 5′ [^32P]-labeled 34-base DNA in buffer containing 20 mM HEPES (pH 7.8), 1 mM DTT, 0.001% NP-40, 50 mM NaCl. Chemical compounds were suspended in DMSO and DMSO concentration in the reaction mixture was kept constant at 2% or below 5%. RPA was incubated with inhibitor or DMSO control in reaction buffer for 30 min before the addition of DNA. Reactions were incubated for 5 min at room temperature and products separated via 6% native polyacrylamide gel electrophoresis. The bound and unbound fractions were then quantified by phosphor-imager analysis using ImageQuant software (Molecular Dynamics, CA) and IC50 values calculated by non-linear regression using SigmPlot (Sysat). For EMSA reactions with RPA DBD-A/B, 150 nM DBD-A/B was used, and electrophoresis was performed at 4° C. All other conditions were identical to those described for the full-length RPA.
Purified full length heterotrimeric human RPA protein was used to screen a series of analogs in an electrophoretic mobility shift assay (EMSA) measuring direct binding to a ss-DNA substrate. Quantification of the EMSA data and additional concentration dependent analysis to measure IC50 values of newly synthesized analogs provided potential insight into the structure-activity relationships (Table 1 and 2). […] Fluorine and trifluoromethyl substituents were included in pyridinyl compounds 28-29.
A general note: A gel shift assay detects complexes by their altered migration in electrophoresis.

In series [2] the test system is sonicated salmon sperm DNA. Nature of the series: Fluorescent intercalator displacement (FID) assay, SYBR-Green. To be noted: 25 mM MOPS pH 6.5. The format is binding. On the procedure:
The analysis of compound interactions with DNA was determined by inhibition of SYBR-Green intercalation into DNA as we have previously described. Briefly, reactions were performed in 25 mM MOPS (pH 6.5) containing sonicated salmon sperm DNA (8.29 ng/μL), SYBR-Green, and the indicated concentrations of RPA inhibitors. Reactions were conducted in black 96-well plates. Doxorubicin, a known noncovalent DNA binding chemotherapeutic, was used as a positive control. Fluorescence was measured using a BioTek® Synergy™ H1 hybrid multi-mode microplate reader with an excitation wavelength of 485 nm, emission wavelength of 528 nm, and a read height of 7 mm. Data were collected using BioTek® Gen5™ reader software. Reactions were incubated a maximum of 5 min before measurements were collected.
In order to probe the potential role of DNA intercalation as a mechanism for RPA inhibition, compounds 19, 23, 26, 27, 43 and 45 were analyzed using FID assay along with doxorubicin (Dox) as a positive control. […] In addition, direct binding of 9 derivatives to the target protein was assessed using a differential scan fluorimetry (DSF) assay. This assay assesses the melting profile of a protein at increasing temperatures via fluorescent dye binding. The direct interaction of a small molecule to the target protein can either increase or decrease the melting temperature (Tm) of the target depending on the specific protein and their interactions. […] Heparin sulfate, a known RPA interacting molecule often used in the purification of the protein was used as a control. […] (data not shown). […] (FIG. 1B).

The subject of series [3] is H460 NSCLC cells. Put plainly: Cellular uptake measurement by LC/MS. The following applies: 20 μM, 4 hours, 37° C. The format is in vitro ADME. On the procedure: All cells were grown as monolayers at 37° C. with 5% CO2 in media containing 20% fetal bovine serum and 0.1% pen/strep. Cellular uptake was assessed in both H460 NSCLC and SKGT4 esophageal adenocarcinoma cells. Briefly, cells were plated in 35 mm dishes at 1×10^6 cells well and incubated overnight. Compounds were added to the medium at a concentration of 20 μM incubation continued for 4 hours. Media was removed and cells washed 3× with PBS. 1 mL of methanol was added per well and cells agitated overnight at 4° C. The methanol was collected, wells washed with an additional 1 ml of methanol and pooled. The compounds were dried under vacuum, suspended in methanol and quantified by LC/MS.
Cellular uptake of our compounds in H460 NSCLC cells was analyzed (FIG. 3B). Initially, compounds were first solubilized in 100% DMSO then diluted in aqueous buffer of media to achieve the desired concentrations, the final DMSO concentration was 1% or less in all experiments. Cells were treated with a fixed concentration (20 μM) for 4 hours at 37° C. The intracellular drug concentrations were determined following extraction with ice cold MeOH and analysis via LC and LC/MS. […] Similar uptake data was also obtained in the SKGT4 esophageal adenocarcinoma cell line.

Series [4] relates to H460 NSCLC cells. Put plainly: Cell survival, CCK-8 metabolic assay, single agent. The series is classed as cell-based. On the procedure: Cell survival was determined by CCK-8 viability assay and/or clonogenic survival assay in 96 well plates or 24 well plates, respectively and combination index (CI) analysis of drug-drug interactions determined by Chou-Talalay analysis as we have previously described. • 1) CCK-8 metabolic assay: Cells were plated (2500 cells/well) in 96-well plate and allowed to grow for at least 18 hours in at 37° C. in the presence of 5% CO2 before treatment with inhibitor for 48 hours. CCK-8 solution (Dojindo) was added to 10% of the total media volume and after 1-4 hours of incubation absorbance at 450 nm was determined using BioTek® Synergy™ H1 hybrid multi-mode microplate reader • 2) Clonogenic survival assay: Cells were plated in a 24 well (20,000 cells/well) plate, incubated for at least 18 hours and then treated with inhibitor. […] Images of the stained colonies were captured with a Fuji LAS-3000 CCD system then counted using OpenCFU software. Viability is determined as a percent of vehicle controls and plotted versus drug concentration. • 3) Assessment of synergy via combination index (CI): In the combination index studies, cells (H460 or SKGT4) were treated with RPA inhibitor and Pt/etoposide/bleomycin/taxol/DDR inhibitor alone as well as the combination of both—the inhibitor and the DNA damaging chemotherapeutic agent/DDR inhibitor. […]
(In general: Tetrazolium dyes change colour on reduction, which living cells bring about.)

Series [5] has as its target T2, RPA DBD-A/B construct (His6-RPA181-422 of RPA70) (Homo sapiens, UniProt P27694).
T2 construct: The DBD-A/B construct was expressed as a His6-RPA181-422 fusion protein; His6 (N); made in house; host or cells: E. coli BL21 (DE3)
Nature of the series: EMSA, binding of RPA DBD-A/B construct to DNA. To be noted: mean ± SD, read-out: RPAA/B IC50. On the procedure: as §1, §2
These domains are compact modular domains populated with hydrophobic and basic DNA binding amino acid residues and have great potential to influence binding of the compounds to the RPA70 subunit. RPA DBD-A/B construct was purified via Ni-affinity chromatography. The activity of compounds 23-27 was evaluated on purified DBD-A/B construct using EMSA.

Series [6] deals with H460 NSCLC cells. Put plainly: Combination index (Chou-Talalay), CCK-8 assay. The series is classed as cell-based. The following applies: CI <1.0 = synergy. On the procedure: Cell survival was determined by CCK-8 viability assay and/or clonogenic survival assay in 96 well plates or 24 well plates, respectively and combination index (CI) analysis of drug-drug interactions determined by Chou-Talalay analysis as we have previously described. • 1) CCK-8 metabolic assay: Cells were plated (2500 cells/well) in 96-well plate and allowed to grow for at least 18 hours in at 37° C. in the presence of 5% CO2 before treatment with inhibitor for 48 hours. CCK-8 solution (Dojindo) was added to 10% of the total media volume and after 1-4 hours of incubation absorbance at 450 nm was determined using BioTek® Synergy™ H1 hybrid multi-mode microplate reader • 2) Clonogenic survival assay: Cells were plated in a 24 well (20,000 cells/well) plate, incubated for at least 18 hours and then treated with inhibitor. After 48 hours of treatment, the cells are re-plated in 10 cm dishes (500 cells/dish) and incubated for 8-10 days to allow colony formation. Plates are washed with PBS, fixed with glutaraldehyde and stained with crystal violet. Images of the stained colonies were captured with a Fuji LAS-3000 CCD system then counted using OpenCFU software. Viability is determined as a percent of vehicle controls and plotted versus drug concentration. • 3) Assessment of synergy via combination index (CI): In the combination index studies, cells (H460 or SKGT4) were treated with RPA inhibitor and Pt/etoposide/bleomycin/taxol/DDR inhibitor alone as well as the combination of both—the inhibitor and the DNA damaging chemotherapeutic agent/DDR inhibitor. The range of treatment was dependent on the IC50 of each inhibitor/drug. If the IC50 was X, then the cells were treated at a range of 0.04× to 5× concentration in a CCK-8 metabolic assay. The kill curves from both the single agent treatments as well as the combination treatment were used in a Chou-Talalay based method to determine the combination index (CI) at different fractions of cells affected.^40 A CI>1.0 indicates antagonism between the two agents, while a CI<1.0 indicates synergy.
Inhibiting RPA can act synergistically with DNA damaging therapeutics including cisplatin and etoposide (FIG. 4C). In these studies, we used the Chou-Talalay method, which provides a combination index (CI) that quantifies synergistic activity for each drug combination. […] The synergistic activity of compounds described herein with DNA damaging agents may be explained by RPA's role in the DNA damage response and signaling.

The nature of series [7]: Aqueous solubility as a function of pH. The format is physicochemical. The following applies: thermodynamic from solid. On the procedure: Aqueous solubility was determined by suspending compound in un-buffered water with stirring. Insoluble material was removed by sedimentation or filtration and soluble compound quantified by absorbance spectroscopy and LC/MS. pH dependence was determined by suspending compound in 10 mM citrate buffer at pH 4.0 or 10 mM phosphate […] as described above in the description.
The morpholine ring is commonly introduced into solvent exposed regions as a privileged solubilizing group to improve solubility or pharmacokinetic properties including metabolic stability of a prospective drug scaffold which is exemplified by many FDA approved drugs. Modifications on Ring A had less of an effect than the morpholino modifications at the alkyl carboxylic acid side chain. To determine the effect of pH on solubility, we prepared solution at 1 mM in citrate buffer at pH 4, phosphate buffer at pH 7 and carbonate buffer at pH 9.5.

In brackets after ≈: the same amount, converted by molar mass.

T1 sequence (P27694 whole entry): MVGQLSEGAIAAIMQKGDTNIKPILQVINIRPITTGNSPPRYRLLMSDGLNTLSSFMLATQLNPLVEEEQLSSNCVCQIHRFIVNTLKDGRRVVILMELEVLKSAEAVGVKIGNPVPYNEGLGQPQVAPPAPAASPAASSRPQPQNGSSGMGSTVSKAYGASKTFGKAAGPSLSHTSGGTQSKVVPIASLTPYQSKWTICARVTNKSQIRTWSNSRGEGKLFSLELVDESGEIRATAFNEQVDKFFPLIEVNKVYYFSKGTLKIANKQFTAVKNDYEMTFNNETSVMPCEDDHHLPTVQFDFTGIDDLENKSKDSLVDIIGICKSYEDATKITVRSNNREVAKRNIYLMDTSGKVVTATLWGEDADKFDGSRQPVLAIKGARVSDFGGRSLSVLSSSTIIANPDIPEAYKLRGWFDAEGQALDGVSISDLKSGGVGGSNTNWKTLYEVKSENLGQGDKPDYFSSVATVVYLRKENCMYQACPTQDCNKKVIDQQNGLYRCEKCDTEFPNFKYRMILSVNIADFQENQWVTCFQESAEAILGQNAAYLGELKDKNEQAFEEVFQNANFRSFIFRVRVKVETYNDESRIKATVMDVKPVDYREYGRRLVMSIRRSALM
T1 sequence (P15927 whole entry partner): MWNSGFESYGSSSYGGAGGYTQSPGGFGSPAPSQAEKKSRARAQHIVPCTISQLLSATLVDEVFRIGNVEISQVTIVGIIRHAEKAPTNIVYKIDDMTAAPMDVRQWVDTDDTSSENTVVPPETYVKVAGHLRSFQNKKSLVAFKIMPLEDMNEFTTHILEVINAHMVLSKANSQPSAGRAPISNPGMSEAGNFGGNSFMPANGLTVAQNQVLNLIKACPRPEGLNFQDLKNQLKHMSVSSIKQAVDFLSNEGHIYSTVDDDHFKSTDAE
T1 sequence (P35244 whole entry partner): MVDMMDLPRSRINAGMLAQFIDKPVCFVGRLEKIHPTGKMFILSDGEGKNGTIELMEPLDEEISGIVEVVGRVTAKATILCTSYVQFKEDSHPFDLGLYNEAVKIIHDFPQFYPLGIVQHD
T2 sequence (P27694 181-422): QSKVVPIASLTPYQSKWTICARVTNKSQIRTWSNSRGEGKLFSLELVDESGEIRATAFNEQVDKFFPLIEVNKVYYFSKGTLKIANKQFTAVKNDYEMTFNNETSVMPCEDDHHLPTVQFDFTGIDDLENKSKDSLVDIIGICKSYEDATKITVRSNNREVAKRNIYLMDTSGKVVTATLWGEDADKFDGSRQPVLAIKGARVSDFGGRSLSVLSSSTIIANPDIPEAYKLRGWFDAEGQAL

As to `CCOc1ccc2cc(C3CC(c4ccc(-c5ccc(Cl)nc5)cc4)=NN3C(=O)CCCC(=O)O)c(Cl)nc2c1` (centres unmarked) [Compound 26, 5-(5-(2-Chloro-7-ethoxyquinolin-3-yl)-3-(4-(6-chloropyridin-3-yl)phenyl)-4,5-dihydro-1H-pyrazol-1-yl)-5-oxopentanoic acid], the IC50 amounted to 1.61 ± 0.04 µM in series [1] and 11.7 ± 0.3 µM in series [5]. In addition, in series [2], the “DNA binding activity (displacement of SYBR-Green intercalator)” value is on record as “No significant DNA binding activity”. For the same compound, the “cellular uptake (in words)” value with H460 NSCLC cells [3] is reported as “increased uptake”. In addition, the “cellular anticancer activity compared to compound 9” value in the series with H460 NSCLC cells [4] is given as “increase in cellular anticancer activity”.
Regarding `CCOc1ccc2cc(C3CC(c4ccc(I)cc4)=NN3C(=O)CCCC(=O)O)c(Cl)nc2c1` (centres unmarked) [Compound 9, 5-(5-(2-Chloro-7-ethoxyquinolin-3-yl)-3-(4-iodophenyl)-4,5-dihydro-1H-pyrazol-1-yl)-5-oxopentanoic acid], the “synergy (combination index) with DNA damaging therapeutics cisplatin and etoposide” value in the series with H460 NSCLC cells [6] was “showed synergy but not as robust of activity as compound 8”. In addition, in series [1], the IC50 amounted to 15.3 ± 1.42 µM. The solubility in series [7] (aqueous buffer at pH 9.5, pH 9.5, aqueous buffer) amounted to 112.5 ± 0.74 µM (≈ 66.6 µg/mL); in series [7] (aqueous buffer, pH 4, citrate buffer) it was 0.76 ± 0.35 µM (≈ 0.45 µg/mL); in series [7] (aqueous buffer, pH 7, phosphate buffer) it was 3.31 ± 0.36 µM (≈ 1.96 µg/mL). For the same compound, the “cellular uptake (in words)” value with H460 NSCLC cells [3] is given as “relatively poor uptake”.

As usually defined, the solubility is the dissolved amount per volume that the medium holds. Read a low solubility as a poorly soluble substance.
